Numbering of substitutions follows the chain as printed. Where two headings read alike, the source gives them in different places.
Experiments:
[1] = molecular target: T1, Cys^10Ser mutant 17β-HSD1 (Homo sapiens, UniProt P14061, C11S); test: Cys^10Ser mutant 17β-HSD1 reductase activity (estrone to estradiol) in lysates of transfected HEK-293 cells; assay type: biochemical
T1 construct: expressed in transfected cells; host or cells: HEK-293 (transient calcium phosphate transfection; cell lysates used)
T1 sequence (P14061 1-328 C11S): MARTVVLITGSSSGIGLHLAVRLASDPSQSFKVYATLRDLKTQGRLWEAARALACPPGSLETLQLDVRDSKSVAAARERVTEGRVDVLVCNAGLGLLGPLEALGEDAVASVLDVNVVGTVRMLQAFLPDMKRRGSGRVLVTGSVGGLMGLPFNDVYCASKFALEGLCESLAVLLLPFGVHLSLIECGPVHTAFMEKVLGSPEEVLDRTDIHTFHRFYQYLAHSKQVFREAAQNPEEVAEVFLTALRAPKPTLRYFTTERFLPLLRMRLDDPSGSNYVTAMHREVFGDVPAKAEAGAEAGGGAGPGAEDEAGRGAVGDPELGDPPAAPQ
Method: In order to facilitate detection, an octahistidine tag was added to the C-terminus of human 17β-HSD1 by PCR amplification using oligonucleotide primers containing the tag-coding sequence (forward primer 5′-[…]-3′, reverse primer 5′-[…]-3′). […] The substitution of Cys^10 to serine was introduced into the C-terminal histidine-tagged 17β-HSD1 cDNA in Bluescript vector by site-directed mutagenesis using the forward primer 5′-[…]-3′ and the reverse primer 5′-[…]-3′ according to the Quick Change mutagenesis kit (Stratagene, Amsterdam, The Netherlands), followed by subsequent recloning into pcDNA3.1 expression plasmid.
(§1) To determine 17β-HSD1 activity, HEK-293 cells were transfected by the calcium phosphate precipitation method. Cells were harvested 48 h after transfection, washed twice with phosphate-buffered saline (PBS), and centrifuged for 4 min at 150 ×g. Supernatants were removed and the cell pellets were quick-frozen in a dry ice-ethanol bath and stored at −80°C. The reductase activity of 17β-HSD1 was measured by incubation of cell lysates for 10 min at 37°C in the presence of 200 nM radiolabeled estrone and 400 μM NADPH in a reaction buffer containing 20% glycerol, 1 mM EDTA, and 50 mM potassium phosphate, pH 7.4. Inhibitors were diluted from stock solutions in dimethylsulfoxide (DMSO) and immediately used in the assays.
(§2) For determination of enzyme kinetics, estrone concentrations ranging from 10 to 800 nM were used. Data (mean ± SD) were obtained from three independent experiments and were calculated using the Data Analysis Toolbox (Elsevier MDL, Allschwil, Switzerland).

human 17β-HSD1 = molecular target: T2, human 17β-HSD1 (Homo sapiens, UniProt P14061); test: 17β-HSD1 reductase activity (estrone to estradiol) in lysates of transfected HEK-293 cells; assay type: biochemical; details: for IC50 for 17β-HSD1 compared with those obtained for 11β-HSD2: simultaneous incubation with substrate and inhibitor, 11β-HSD2 values from ref 20
T2 construct: expressed in transfected cells; host or cells: HEK-293 (transient calcium phosphate transfection; cell lysates used)
T2 sequence (P14061 1-328): T1 sequence (P14061 1-328 C11S) with S11C
Method: as §1, §2

[2] = simultaneous incubation of lysates with 200 nM estrone and inhibitor, 400 μM NADPH, 10 min, 37°C, read-out: IC50

Molecule	IC50 (human 17β-HSD1; [2]) [µM]	IC50 for 17β-HSD1 compared with those obtained for 11β-HSD2 (human 17β-HSD1)	further results
CCN1C(=O)C=CC1=O [NEM, N-ethylmaleimide]	22 ± 6		inhibition of wild-type enzyme relative to mutant Cys^10Ser ([1]; cell lysates, data not shown): approximately two times stronger; 17β-HSD1 activity after preincubation with inhibitor (human 17β-HSD1; preincubation of lysates with 20 μM NEM for 1 h prior to the addition of estrone, data not shown): completely abolished; effect of preincubation with NADPH on inhibition (human 17β-HSD1; preincubation with NADPH for 15 min, NEM 60 μM, estrone 200 nM, NADPH 400 μM, concentration dependent): protected from inhibition
CCN(CC)C(=S)SSC(=S)N(CC)CC [disulfiram]	8 ± 1	about two orders of magnitude higher	
C[C@]12CC[C@@H]3c4ccc(O)cc4CC[C@H]3[C@@H]1CCC2=O [estrone]			K m ([1]; Cys^10Ser mutant, estrone 10 to 800 nM, 400 μM NADPH): 0.065 ± 0.003 µM; V max ([1]; Cys^10Ser mutant, estrone 10 to 800 nM, 400 μM NADPH, normalized to protein expression): 124 ± 3 nmol/h/mg; K m (human 17β-HSD1; wild-type, estrone 10 to 800 nM, 400 μM NADPH): 0.043 ± 0.006 µM; V max (human 17β-HSD1; wild-type, estrone 10 to 800 nM, 400 μM NADPH, normalized to protein expression): 110 ± 5 nmol/h/mg
CN(C)C(=S)SSC(=S)N(C)C [thiram]	21 ± 4	about two orders of magnitude higher	
S=C(S)NCCNC(=S)S [zineb]		about two orders of magnitude higher	IC50 (human 17β-HSD1): 24 ± 3 µM
maneb	25 ± 3	about two orders of magnitude higher	

— article PMC3855964, “Cysteine-10 on 17β-Hydroxysteroid Dehydrogenase 1 Has Stabilizing Interactions in the Cofactor Binding Region and Renders Sensitivity to Sulfhydryl Modifying Chemicals” (International Journal of Cell Biology, 2013)
